Laboratory results: patent US10413545B2, “Imidazolin-5-one derivative useful as FASN inhibitors for the treatment of cancer” (Janssen Pharmaceutica NV, priority 2013, dated 2019)
Like-named read-outs stand apart in the source and are kept apart here.

What was measured:
[1] = tested on: A2780 ovarian cells; test: A2780 Ovarian Cell Proliferation Assay in Lipid Reduced Medium, with and without Palmitate (MTT); type: cell-based; settings: Homo sapiens, 10% lipid-reduced serum, 96 h
Experimental: The biological assays described below correspond to comparative assays for ovarian cell proliferation.
2500 cells were seeded in a 96-well clear well plate in 200 μL RPM11640 with 10% Fetal Calf Serum (Hyclone), and incubated at 37° C., 5% CO2, Blanks were wells without cells. The next day the culture medium was aspirated and replaced by 160 μL culture medium with 10% Lipid-Reduced Serum (LRS, Hyclone). […] After 96 h incubation, an MTT assay was performed.
2500 cells were seeded in a 96-well clear well plate in 200 μL RPM11640 with 10% Fetal Calf Serum (Hyclone), and incubated at 37° C., 5% CO2. Blanks were wells without cells. The next day the culture medium was aspirated and replaced by 160 μL culture medium with 10% Lipid-Reduced Serum (LRS, Hyclone). 20 μL test compound (at concentrations of 30 μM, 10 μM, 3 μM, 1 μM, 0.30 μM, 0.10 μM, 0.03 μM and 0.01 μM)/DMSO dilution followed by 20 μL ethanol-BSA solution were added to a final concentrations of 0.2% DMSO, 0.2% fatty-acid-free BSA, 0.25% ethanol. After 96 h incubation an MTT assay was performed.
Raw data generated by the instrument were normalized to % Controlmin values, which were calculated as: % Controlmin=100*(x−mLC)/(mHC−mLC)
where mLC and mHC were the means of the low control wells and high control wells on the plate, after manual exclusion of outliers. A plot of Controlmin versus test compound concentration was fitted to a 4-parameter logistic curve using a non-linear least squares regression method.

[2] = tested on: PC-3M-Luc-C6 prostate cells; test: In Vitro PC-3M-Luc-C6 Prostate Cell Proliferation Assay in Lipid Reduced Medium; type: cell-based; settings: Prostate cell, read-out: pIC50 PC-3M-Luc-C6 prostate cell (converted); 10% lipid reduced serum, 96 h, ATP-glow luminescence
Experimental: PC-3M-Luc-C6 prostate cells were obtained from Xenogen Corporation. Cells were maintained in MEM supplemented with 10% Fetal Calf Serum (FCS, Hyclone), 2 mM glutamine, 1 mM sodium pyruvate, 1% BME vitamins (available from for example, Sigma Aldrich), 0.1 mM non Essential Amino Acid and 50 μg/ml Gentamicin. The cells were passaged twice a week.
The next day 10 μl test compound/DMSO diluted in medium was added (3E-5M, 1E-5M, 3E-6M,1E-6M, 3E-7M, 1E-7M, 3E-8M, 1E-8M final concentration). Compounds were tested in duplicate. After 96 h incubation at 37° C., 5% CO2 25 μl ATP-glow mix was added. The plate was incubated for 30 min at 37° C. and luminescence was measured with the Envision.
Analysis: Determination of pIC50 Values
pIC50 values were calculated as follows. Raw data generated by the instruments were normalized to % Controlmin values, which were calculated as: % Controlmin=100*(x−mLC)/(mHC−mLC),
where mLC and mHC are the means of the low control wells and high control wells on the plate, after manual exclusion of outliers. The relation between the % Controlmin values and concentration was fitted to a 4-parameter logistic curve using a non-linear least squares regression method to determine the pIC50 value. Outlying data points were excluded manually to get a correct fit. The pIC50 corresponds to −log 10(IC50), if the IC50 is expressed in molar units (http://www.ncbi.nlm.nih.qovibooks/NBK91994). The IC50 parameter was always determined by non-linear regression, but one or more of the other parameters may have been held fixed on a relevant input value, such as 0 for the bottom values.

[3] = 25 μM palmitate added (control), read-out: pIC50 With Palmitate (converted)
[4] = no palmitate, read-out: pIC50 Without Palmitate (converted)

Compound | IC50 [1, 3] [nM] | IC50 [1, 4] [nM] | IC50 [2] [nM]
CC1(C)N=C(c2ccc(-c3ccc4[nH]ccc4c3)cc2)N(C[C@@H]2CCN(C(=O)C3CC3)C2)C1=O [Compound 1, (R)-2-(4-(1H-Indol-5-yl)phenyl)-1-((1-(cyclopropanecarbonyl)pyrrolidin-3-yl)methyl)-4,4-dimethyl-1H-imidazol-5(4H)-one] | > 10000 | 74.1 | –
Cn1ncc2cc(-c3ccc(C4=NC(C)(C)C(=O)N4C[C@@H]4CCN(C(=O)C5CC5)C4)cc3)ccc21 [Compound 2, (R)-1-((1-(cyclopropanecarbonyl)pyrrolidin-3-yl)methyl)-4,4-dimethyl-2-(4-(1-methyl-1H-indazol-5-yl)phenyl)-1H-imidazol-5(4H)-one] | > 10000 | 525 | –
CC1(C)N=C(c2ccc(-c3ccc4occc4c3)cc2)N(C[C@@H]2CCN(C(=O)C3CC3)C2)C1=O [Compound 3, (R)-2-(4-(benzofuran-5-yl)phenyl)-1-((1-(cyclopropanecarbonyl)pyrrolidin-3-yl)methyl)-4,4-dimethyl-1H-imidazol-5(4H)-one] | > 10000 | 1480 | –
CC1(C)N=C(c2ccc(-c3ccc4occc4c3)cc2)N(C[C@@H]2CCN(C(=O)C3(F)CC3)C2)C1=O [Compound 4, (R)-2-(4-(benzofuran-5-yl)phenyl)-1-((1-(1-fluorocyclopropanecarbonyl)pyrrolidin-3-yl)methyl)-4,4-dimethyl-1H-imidazol-5(4H)-one] | > 10000 | 2750 | –
CC1(C)N=C(c2ccc(-c3nc4ccccc4s3)cc2)N(C[C@@H]2CCN(C(=O)C3CC3)C2)C1=O [Compound 13, (R)-2-(4-(benzo[d]thiazol-2-yl)phenyl)-1-((1-(cyclopropanecarbonyl)pyrrolidin-3-yl)methyl)-4,4-dimethyl-1H-imidazol-5(4H)-one] | > 10000 | 3390 | 2090
CC1(C)N=C(c2ccc(-c3ccc4ncccc4c3)cc2)N(C[C@@H]2CCN(C(=O)C3CC3)C2)C1=O [Compound 64, (R)-1-((1-(cyclopropanecarbonyl)pyrrolidin-3-yl)methyl)-4,4-dimethyl-2-(4-(quinolin-6-yl)phenyl)-1H-imidazol-5(4H)-one] | > 10000 | 4470 | –
CC1(C(=O)N2CC[C@@H](CN3C(=O)C(C)(C)N=C3c3ccc(-c4ccc5cc(F)ccc5c4)cc3F)C2)CC1 [Compound 75, (R)-2-(2-fluoro-4-(6-fluoronaphthalen-2-yl)phenyl)-4,4-dimethyl-1-((1-(1-methylcyclopropanecarbonyl)pyrrolidin-3-yl)methyl)-1H-imidazol-5(4H)-one] | 3310 | 11 | –
Cn1ncc2cc(-c3ccc(C4=NC(C)(C)C(=O)N4C[C@@H]4CCN(C(=O)C5(O)CC5)C4)c(F)c3)ccc21 [Compound 76, (R)-2-(2-fluoro-4-(1-methyl-1H-indazol-5-yl)phenyl)-1((1-(1-hydroxycyclopropanecarbonyl)pyrrolidin-3-yl)methyl)-4,4-dimethyl-1H-imidazol-5(4H)-one] | > 10000 | 23.4 | –
CC1(C)N=C(c2ccc(-c3ccc4cc(F)ccc4c3)cc2F)N(CC2CN(C(=O)C3(O)CC3)C2)C1=O [Compound 79, 2-(2-fluoro-4-(6-fluoronaphthalen-2-yl)phenyl)-1-((1-(1-hydroxycyclopropanecarbonyl)azetidin-3-yl)methyl)-4,4-dimethyl-1H-imidazol-5(4H)-one] | > 10000 | 123 | 70.8
CC1(C)N=C(c2ccc(-c3ccc4cc(F)ccc4c3)cc2F)N(C[C@@H]2CCN(C(=O)C3(O)CC3)C2)C1=O [Compound 88, (R)-2-(2-fluoro-4-(6-fluoronaphthalen-2-yl)phenyl)-1-((1-(1-hydroxycyclopropanecarbonyl)pyrrolidin-3-yl)methyl)-4,4-dimethyl-1H-imidazol-5(4H)-one] | > 10000 | ~14.8 | –
Cn1cnc2cc(-c3ccc(C4=NC(C)(C)C(=O)N4C[C@@H]4CCN(C(=O)C5(O)CC5)C4)c(F)c3)ccc21 [Compound 89, (R)-2-(2-fluoro-4-(1-methyl-1H-benzo[d]imidazol-5-yl)phenyl)-1-((1-(1-hydroxycyclopropanecarbonyl)pyrrolidin-3-yl)methyl)-4,4-dimethyl-1H-imidazol-5(4H)-one] | > 10000 | 6.76 | –
Cn1cnc2cc(-c3ccc(C4=NC(C)(C)C(=O)N4C[C@@H]4CCN(C(=O)C5(C)CC5)C4)c(F)c3)ccc21 [Compound 90, (R)-2-(2-fluoro-4-(1-methyl-1H-benzo[d]imidazol-5-yl)phenyl)-4,4-dimethyl-1-((1-(1-methylcyclopropanecarbonyl)pyrrolidin-3-yl)methyl)-1H-imidazol-5(4H)-one] | > 10000 | ~2.95 | –
Cc1cc(-c2ccc3c(c2)ncn3C)ccc1C1=NC(C)(C)C(=O)N1CC1CN(C(=O)C2(O)CC2)C1 [Compound 91, 1-((1-(1-hydroxycyclopropanecarbonyl)azetidin-3-yl)methyl)-4,4-dimethyl-2-(2-methyl-4-(1-methyl-1H-benzo[d]imidazol-5-yl)phenyl)-1H-imidazol-5(4H)-one] | > 10000 | 129 | –
Cc1cc(-c2ccc3c(c2)ncn3C)ccc1C1=NC(C)(C)C(=O)N1C[C@@H]1CCN(C(=O)C2(O)CC2)C1 [Compound 92, (R)-1-((1-(1-hydroxycyclopropanecarbonyl)pyrrolidin-3-yl)methyl)-4,4-dimethyl-2-(2-methyl-4-(1-methyl-1H-benzo[d]imidazol-5-yl)phenyl)-1H-imidazol-5(4H)-one] | > 10000 | ~5.5 | –
Cn1cnc2cc(-c3ccc(C4=NC(C)(C)C(=O)N4CC4CN(C(=O)C5(C)CC5)C4)c(F)c3)ccc21 [Compound 93, 2-(2-fluoro-4-(1-methyl-1H-benzo[d]imidazol-5-yl)phenyl)-4,4-dimethyl-1-((1-(1-methylcyclopropanecarbonyl)azetidin-3-yl)methyl)-1H-imidazol-5(4H)-one] | > 10000 | 30.9 | –
Cn1cnc2cc(-c3ccc(C4=NC(C)(C)C(=O)N4CC4CN(C(=O)C5(O)CC5)C4)c(F)c3)ccc21 [Compound 94, 2-(2-fluoro-4-(1-methyl-1H-benzo[d]imidazol-5-yl)phenyl)-1-((1-(1-hydroxycyclopropanecarbonyl)azetidin-3-yl)methyl)-4,4-dimethyl-1H-imidazol-5(4H)-one] | > 10000 | 100 | –
Cn1cc(-c2ccc(-c3ccc(C4=NC(C)(C)C(=O)N4C[C@@H]4CCN(C(=O)C5(O)CC5)C4)c(F)c3)cc2)cn1 [Compound 95, (R)-2-(3-fluoro-4′-(1-methyl-1H-pyrazol-4-yl)-[1,1′-biphenyl]-4-yl)-1-((1-(1-hydroxycyclopropanecarbonyl)pyrrolidin-3-yl)methyl)-4,4-dimethyl-1H-imidazol-6(4H)-one] | > 10000 | ~5.37 | –
Cc1cc(-c2ccc3cc(C#N)ccc3c2)ccc1C1=NC(C)(C)C(=O)N1CC1CN(C(=O)C2CC2)C1 [Compound 96, 6-(4-(1-((1-(cyclopropanecarbonyl)azetidin-3-yl)methyl)-4,4-dimethyl-5-oxo-4,5-dihydro-1H-imidazol-2-yl)-3-methylphenyl)-2-naphthonitrile] | > 10000 | ~22.4 | –
CC1(C)N=C(c2ccc(-c3ccc4ncccc4c3)cc2)N(CC2CN(C(=O)C3CC3)C2)C1=O [Compound 98, 1-((1-(cyclopropanecarbonyl)azetidin-3-yl)methyl)-4,4-dimethyl-2-(4-(quinolin-6-yl)phenyl)-1H-imidazol-5(4H)-one] | > 10000 | > 10000 | –
CC1(C)N=C(c2ccc(-c3n[nH]c4ccccc34)cc2)N(CC2CN(C(=O)C3CC3)C2)C1=O [Compound 99, 2-(4-(1H-indazol-3-yl)phenyl)-1-((1-(cyclopropanecarbonyl)azetidin-3-yl)methyl)-4,4-dimethyl-1H-imidazol-5(4H)-one] | > 10000 | > 10000 | –
